According to patent publication US20230085307A1, “PYRIDAZINONE COMPOUND AND HERBICIDE” (NISSAN CHEMICAL CORPORATION, priority 2019, published 2023):

Experiments:
[1] = tested on: chickweed; experiment: Test Example 4: herbicidal effect by soil treatment (Table 19, symbol P); type: in vivo, common chickweed (Stellaria media); settings: AAH 320 g/ha
Outline: (§1)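 Scoring uses the grading scale of an earlier test, three weeks post-application. Treatment consists of spraying a diluted emulsion formulation across the surface of sterilized diluvial soil in which seeds are buried near 1.5 cm deep; boxes are kept in a greenhouse between 25° C. and 30° C.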

[2] = tested on: redroot pigweed; experiment: Test Example 4: herbicidal effect by soil treatment (Table 19, symbol N); type: in vivo, redroot pigweed (Amaranthus retroflexus); settings: AAH 320 g/ha
Outline: as §1

[3] = tested on: redroot pigweed; experiment: Test Example 5: herbicidal effect by foliage application, plastic box (Table 20, symbol N); type: in vivo, redroot pigweed (Amaranthus retroflexus); settings: foliage application, AAH 320 g/ha, three weeks after application
Outline: (§2)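 Post-emergence foliar test in sterilized diluvial soil. Compound applied as water-diluted emulsion at a predetermined rate to 14-day-old plants; evaluation at three weeks.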

[4] = tested on: velvetleaf; experiment: Test Example 5: herbicidal effect by foliage application, plastic box (Table 20, symbol M); type: in vivo, velvetleaf (Abutilon theophrasti); settings: foliage application, AAH 320 g/ha, three weeks after application
Outline: as §2

[5] = tested on: barnyard grass; experiment: Test Example 3: herbicidal effect by foliage application, Wagner pot (Table 18, symbol H); type: in vivo, barnyard grass (Echinochloa crus-galli); settings: 320 g/ha
Outline: (§3)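 Plants were sown in alluvial soil held under 0.1–0.5 cm standing water and grown 14 days in a greenhouse at 25–30 °C. An emulsifiable formulation, water-diluted to the set dose, was then sprayed onto the foliage, and effects were scored three weeks later using previously defined criteria.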

[6] = tested on: green foxtail; experiment: Test Example 4: herbicidal effect by soil treatment (Table 19, symbol G); type: in vivo, green foxtail (Setaria viridis); settings: AAH 320 g/ha
Outline: as §1

[7] = tested on: barnyard grass; experiment: Test Example 5: herbicidal effect by foliage application, plastic box (Table 20, symbol H); type: in vivo, barnyard grass (Echinochloa crus-galli); settings: foliage application, AAH 320 g/ha, three weeks after application
Outline: as §2

[8] = tested on: persian speedwell; experiment: Test Example 4: herbicidal effect by soil treatment (Table 19, symbol R); type: in vivo, Persian speedwell (Veronica persica); settings: AAH 320 g/ha
Outline: as §1

[9] = tested on: green foxtail; experiment: Test Example 5: herbicidal effect by foliage application, plastic box (Table 20, symbol G); type: in vivo, green foxtail (Setaria viridis); settings: foliage application, AAH 320 g/ha, three weeks after application
Outline: as §2

[10] = tested on: velvetleaf; experiment: Test Example 4: herbicidal effect by soil treatment (Table 19, symbol M); type: in vivo, velvetleaf (Abutilon theophrasti); settings: AAH 320 g/ha
Outline: as §1

[11] = tested on: windgrass; experiment: Test Example 4: herbicidal effect by soil treatment (Table 19, symbol L); type: in vivo, windgrass (Apera spica-venti); settings: AAH 320 g/ha
Outline: as §1

[12] = tested on: blackgrass; experiment: Test Example 4: herbicidal effect by soil treatment (Table 19, symbol J); type: in vivo, blackgrass (Alopecurus myosuroides); settings: AAH 320 g/ha
Outline: as §1

[13] = tested on: wild oat; experiment: Test Example 5: herbicidal effect by foliage application, plastic box (Table 20, symbol I); type: in vivo, wild oat (Avena fatua); settings: foliage application, AAH 320 g/ha, three weeks after application
Outline: as §2

[14] = tested on: barnyard grass; experiment: Test Example 4: herbicidal effect by soil treatment (Table 19, symbol H); type: in vivo, barnyard grass (Echinochloa crus-galli); settings: AAH 320 g/ha
Outline: as §1

[15] = tested on: chickweed; experiment: Test Example 5: herbicidal effect by foliage application, plastic box (Table 20, symbol P); type: in vivo, common chickweed (Stellaria media); settings: foliage application, AAH 320 g/ha, three weeks after application
Outline: as §2

[16] = tested on: lambsquarters; experiment: Test Example 4: herbicidal effect by soil treatment (Table 19, symbol O); type: in vivo, lambsquarters (Chenopodium album); settings: AAH 320 g/ha
Outline: as §1

[17] = tested on: wild oat; experiment: Test Example 4: herbicidal effect by soil treatment (Table 19, symbol I); type: in vivo, wild oat (Avena fatua); settings: AAH 320 g/ha
Outline: as §1

[18] = tested on: lambsquarters; experiment: Test Example 5: herbicidal effect by foliage application, plastic box (Table 20, symbol O); type: in vivo, lambsquarters (Chenopodium album); settings: foliage application, AAH 320 g/ha, three weeks after application
Outline: as §2

[19] = tested on: blackgrass; experiment: Test Example 5: herbicidal effect by foliage application, plastic box (Table 20, symbol J); type: in vivo, blackgrass (Alopecurus myosuroides); settings: foliage application, AAH 320 g/ha, three weeks after application
Outline: as §2

[20] = tested on: Italian ryegrass; experiment: Test Example 5: herbicidal effect by foliage application, plastic box (Table 20, symbol K); type: in vivo, Italian ryegrass (Lolium multiflorum); settings: foliage application, AAH 320 g/ha, three weeks after application
Outline: as §2

[21] = tested on: southern crabgrass; experiment: Test Example 5: herbicidal effect by foliage application, plastic box (Table 20, symbol F); type: in vivo, southern crabgrass (Digitaria ciliaris); settings: foliage application, AAH 320 g/ha, three weeks after application
Outline: as §2

[22] = tested on: windgrass; experiment: Test Example 5: herbicidal effect by foliage application, plastic box (Table 20, symbol L); type: in vivo, windgrass (Apera spica-venti); settings: foliage application, AAH 320 g/ha, three weeks after application
Outline: as §2

[23] = tested on: persian speedwell; experiment: Test Example 5: herbicidal effect by foliage application, plastic box (Table 20, symbol R); type: in vivo, Persian speedwell (Veronica persica); settings: foliage application, AAH 320 g/ha, three weeks after application
Outline: as §2

[24] = tested on: southern crabgrass; experiment: Test Example 4: herbicidal effect by soil treatment (Table 19, symbol F); type: in vivo, southern crabgrass (Digitaria ciliaris); settings: AAH 320 g/ha
Outline: as §1

[25] = tested on: Italian ryegrass; experiment: Test Example 4: herbicidal effect by soil treatment (Table 19, symbol K); type: in vivo, Italian ryegrass (Lolium multiflorum); settings: AAH 320 g/ha
Outline: as §1

[26] = tested on: rice flat sedge; experiment: Test Example 3: herbicidal effect by foliage application, Wagner pot (Table 18, symbol E); type: in vivo, rice flat sedge (Cyperus iria); settings: 320 g/ha
Outline: as §3

[27] = tested on: Chinese sprangletop; experiment: Test Example 3: herbicidal effect by foliage application, Wagner pot (Table 18, symbol D); type: in vivo, chinese sprangletop (Leptochloa chinensis); settings: 320 g/ha
Outline: as §3

Row | Structure (SMILES) | P: chickweed, herbicidal effect rating [1] | N: redroot pigweed, herbicidal effect rating [2] | N: redroot pigweed, herbicidal effect [3] | M: velvetleaf, herbicidal effect [4] | herbicidal effect on H (barnyard grass), rating 0-5 [5] | G: green foxtail, herbicidal effect rating [6] | H: barnyard grass, herbicidal effect [7] | R: persian speedwell, herbicidal effect rating [8] | G: green foxtail, herbicidal effect [9] | M: velvetleaf, herbicidal effect rating [10] | L: windgrass, herbicidal effect rating [11] | J: blackgrass, herbicidal effect rating [12] | I: wild oat, herbicidal effect [13] | H: barnyard grass, herbicidal effect rating [14] | P: chickweed, herbicidal effect [15] | O: lambsquarters, herbicidal effect rating [16] | I: wild oat, herbicidal effect rating [17] | O: lambsquarters, herbicidal effect [18] | J: blackgrass, herbicidal effect [19] | K: Italian ryegrass, herbicidal effect [20] | further results
1 | Cc1nn(C)c(=O)c(-c2c(-c3ccc(OCC#N)cc3)sc3ccccc23)c1O [1-137] | 0 (Herbicidal rate of 5% or less (almost no effect)) | 3 (Herbicidal rate of 40% or more and less than 70%) | 0 (Herbicidal rate of 5% or less (almost no effect)) | 3 (Herbicidal rate of 40% or more and less than 70%) | 3 (Herbicidal rate of 40% or more and less than 70%) | 2 (Herbicidal rate of 20% or more and less than 40%) | 1 (Herbicidal rate of 5% or more and less than 20%) | 3 (Herbicidal rate of 40% or more and less than 70%) | 0 (Herbicidal rate of 5% or less (almost no effect)) | 0 (Herbicidal rate of 5% or less (almost no effect)) | 0 (Herbicidal rate of 5% or less (almost no effect)) | 0 (Herbicidal rate of 5% or less (almost no effect)) | 0 (Herbicidal rate of 5% or less (almost no effect)) | 0 (Herbicidal rate of 5% or less (almost no effect)) | 3 (Herbicidal rate of 40% or more and less than 70%) | 2 (Herbicidal rate of 20% or more and less than 40%) | 0 (Herbicidal rate of 5% or less (almost no effect)) | 3 (Herbicidal rate of 40% or more and less than 70%) | 0 (Herbicidal rate of 5% or less (almost no effect)) | 0 (Herbicidal rate of 5% or less (almost no effect)) | F: southern crabgrass, herbicidal effect [21]: 0 (Herbicidal rate of 5% or less (almost no effect)); L: windgrass, herbicidal effect [22]: 0 (Herbicidal rate of 5% or less (almost no effect)); R: persian speedwell, herbicidal effect [23]: 4 (Herbicidal rate of 70% or more and less than 90%); F: southern crabgrass, herbicidal effect rating [24]: 0 (Herbicidal rate of 5% or less (almost no effect)); K: Italian ryegrass, herbicidal effect rating [25]: 0 (Herbicidal rate of 5% or less (almost no effect)); herbicidal effect on E (rice flat sedge), rating 0-5 [26]: 5 (Herbicidal rate of 90% or more (almost completely withered)); herbicidal effect on D (Chinese sprangletop), rating 0-5 [27]: 3 (Herbicidal rate of 40% or more and less than 70%)
2 | C=CCOc1ccc(-c2sc3ccccc3c2-c2c(O)c(C)nn(C)c2=O)cc1 [1-139] | 5 (Herbicidal rate of 90% or more (almost completely withered)) | 5 (Herbicidal rate of 90% or more (almost completely withered)) | 5 (Herbicidal rate of 90% or more (almost completely withered)) | 4 (Herbicidal rate of 70% or more and less than 90%) | 5 (Herbicidal rate of 90% or more (almost completely withered)) | 3 (Herbicidal rate of 40% or more and less than 70%) | 5 (Herbicidal rate of 90% or more (almost completely withered)) | 5 (Herbicidal rate of 90% or more (almost completely withered)) | 5 (Herbicidal rate of 90% or more (almost completely withered)) | 2 (Herbicidal rate of 20% or more and less than 40%) | 3 (Herbicidal rate of 40% or more and less than 70%) | 0 (Herbicidal rate of 5% or less (almost no effect)) | 4 (Herbicidal rate of 70% or more and less than 90%) | 4 (Herbicidal rate of 70% or more and less than 90%) | 5 (Herbicidal rate of 90% or more (almost completely withered)) | 4 (Herbicidal rate of 70% or more and less than 90%) | 0 (Herbicidal rate of 5% or less (almost no effect)) | 4 (Herbicidal rate of 70% or more and less than 90%) | 4 (Herbicidal rate of 70% or more and less than 90%) | 5 (Herbicidal rate of 90% or more (almost completely withered)) | F: southern crabgrass, herbicidal effect [21]: 5 (Herbicidal rate of 90% or more (almost completely withered)); L: windgrass, herbicidal effect [22]: 5 (Herbicidal rate of 90% or more (almost completely withered)); R: persian speedwell, herbicidal effect [23]: 5 (Herbicidal rate of 90% or more (almost completely withered)); F: southern crabgrass, herbicidal effect rating [24]: 0 (Herbicidal rate of 5% or less (almost no effect)); K: Italian ryegrass, herbicidal effect rating [25]: 5 (Herbicidal rate of 90% or more (almost completely withered)); herbicidal effect on E (rice flat sedge), rating 0-5 [26]: 5 (Herbicidal rate of 90% or more (almost completely withered)); herbicidal effect on D (Chinese sprangletop), rating 0-5 [27]: 0 (Herbicidal rate of 5% or less (almost no effect))
